Measured values reported in patent US12409206B2, “Use of cyclosporine analogues for treating fibrosis” (Hepion Pharmaceuticals, Inc., priority 2020, dated 2025).

Key:
[1] = test system: Human renal mesangial cells; assay: Cell viability analysis, renal mesangial cell culture; assay type: cell-based; conditions: end of 4 days of treatment
Protocol: Human renal mesangial cells (ScienCell, Cat. #4200 (SC)) were cultured in 96-well plates. Treatments were applied in triplicate wells (applied 100 ul treatments per well) for 2 days, then re-applied for an additional 2 days. Cells were near confluence at the start of treatments. […] Spent culture medium collected from Day 2-4 of treatment was assayed for procollagen and fibronectin by enzyme-linked immunosorbent assays (ELISA) (Procollagen ELISA antibody pair (ab216064) and fibronectin ELISA antibody pair (ab222262) from Abcam). Procollagen and fibronectin were not detected in medium not applied to cells. Procollagen and fibronectin levels in the medium are represented by means±SD (bars) from 3 replicate wells (open circles).

hepatitis C = conditions: preclinical studies; cited from earlier work
[2] = test system: Human LX-2 Hepatic Stellate Cells; assay: Cell viability analysis, LX-2 culture; assay type: cell-based; conditions: end of treatment (24 hours)
Protocol: Human LX-2 Hepatic Stellate Cells (Millipore-Sigma, Cat. #SCC064) were cultured in 96-well plates. Treatments were applied in triplicate wells (applied 100 ul treatments per well) for 24 hours. Cells were near confluence at the start of treatments. […] Spent culture medium collected at the end of the treatments was assayed for procollagen and fibronectin by enzyme-linked immunosorbent assays (ELISA) (Procollagen ELISA antibody pair (ab216064) and fibronectin ELISA antibody pair (ab222262) from Abcam). Procollagen and fibronectin were not detected in medium not applied to cells. Procollagen and fibronectin levels in the medium are represented by means±SD (bars) from 3 replicate wells (open circles).

[3] = test system: human precision cut liver slices (PCLS); assay: PCLS gene expression by RT-PCR; assay type: cell-based
Protocol: PCLS were obtained from 5 human donors who underwent resection of liver cancer. Replicate slices were collected from healthy margins of the resections and cultured for 4 or 6 days depending on the experimental protocol. In the Nonstimulation Protocol slices were cultured for 6 days and treated for the entire period with DMSO vehicle or 5 μM CRV431. In the Stimulation Protocol slices were rested for 1 day and then administered the cytokines, TGFβ and PDGF-BB, for 3 days to stimulate inflammation and fibrosis. DMSO vehicle, CRV431 (1 and 5 μM), Alk5i (10 μM), obeticholic acid (5 μM), elafibranor (5 μM), resmetirom ([…]), and Aramchol (5 μM) were administered individually as drug treatments in the Stimulation Protocol concurrent with TGFβ+PDGF-BB. Culture medium treatments were replaced daily.
Four types of evaluations were conducted on the PCLS: (a) secretion of inflammation and fibrosis biomarkers into the culture medium, (b) histological staining and quantitation of Sirius red as a measure of tissue fibrosis, (c) gene expression of inflammation and fibrosis biomarkers by RT-PCR, and (d) RNA sequencing (RNA-Seq) of the complete transcriptome. Each of the four types of evaluation is described below: • (a) Biomarker secretion. Spent culture medium was collected daily from duplicate slices for each treatment. ELISAs were used to quantify secretion of monocyte chemoattractant protein (MCP-1), interleukin-6 (IL-6), tissue inhibitor of metalloproteinase-1 (TIMP1), hyaluronic acid, fibronectin, and collagen 1α1. For each donor the mean level of biomarker secretion in each treatment group was expressed as a percentage change relative to DMSO vehicle, the percentages averaged for all donors, and finally the mean daily percentage change calculated from all days of evaluation. […] Sirius red was quantified morphometrically in the histological sections as the percentage area with Sirius red staining in 10 sections from each treatment. In the Nonstimulation Protocol the quantity of Sirius red staining was expressed relative to the vehicle group. In the Stimulation Protocol the quantity of Sirius red staining was expressed relative to nonstimulated PCLS (0%) and TGFβ+PDGF-BB-stimulated+vehicle PCLS (100%). […] RNA was isolated from duplicate liver slices per treatment at the end of the experiments and evaluated by RT-PCR for 5 markers of inflammation and fibrosis: MCP-1, IL-6, TIMP1, αSMA, and collagen 1α1. β actin was used as a reference gene to calculate relative levels of each target gene RNA. […] RNA sequencing of the complete transcriptome (30 million reads per sample) was conducted on vehicle and 5 μM CRV431 treatment groups from 3 donors both from the Nonstimulation and Stimulation Protocols. […]

[4] = test system: human precision cut IPF lung slices; assay: Secreted markers (ELISA) in precision cut IPF lung slices in culture; assay type: cell-based; conditions: CRV431 applied at 5 μM; 4 daily treatment intervals; relative to DMSO vehicle
Protocol: (§1) This example describes a study conducted with precision cut lung slices. Precision cut slices from explanted lung tissue from a patient with biopsy-confirmed, idiopathic pulmonary fibrosis (IPF) were cultured for 6 days. Treatments were applied to 6 replicate slices per treatment on Day 2 of culture and replaced daily on Days 3, 4, and 5 of culture.
For generating the results of secreted marker (% daily average change) shown in FIG. 6A, spent medium (24-hr intervals) was collected on Days 3, 4, 5, and 6 to measure secretion by ELISA of six markers of inflammation and fibrosis: monocyte chemoattractant protein (MCP-1), interleukin-6 (IL-6), matrix metalloproteinase-7 (MMP-7), tissue inhibitor of metalloproteinase-1 (TIMP1), hyaluronic acid, and collagen 1α1. The mean level of secretion from 6 replicate slices for each drug treatment was expressed as a percentage change relative to DMSO vehicle treatment for each day of treatment, and then the mean percentage change from 4 daily treatment intervals was calculated.

[5] = test system: human precision cut IPF lung slices; assay: Gene expression (RT-PCR) in precision cut IPF lung slices in culture; assay type: cell-based; conditions: CRV431 applied at 5 μM; Day 6 of culture after 4 days of treatment; β actin reference
Protocol: as §1
For generating the results of gene expression shown in FIG. 6B, RNA was isolated from 6 pooled lung slices per treatment on Day 6 of culture following 4 days of drug or vehicle treatment and evaluated by reverse transcription-polymerase chain reaction (RT-PCR) for 6 markers of inflammation and fibrosis: MCP-1, IL-6, TGFβ TIMP1, collagen 1α1, and α-smooth muscle actin (αSMA). β actin was used as a reference gene to calculate relative levels of each target gene RNA.

CC[C@@H]1NC(=O)[C@H]([C@H](O)[C@H](C)CCCCCCNC(C)=O)N(C)C(=O)[C@H](C(C)C)N(C)C(=O)[C@H](CC(C)C)N(C)C(=O)[C@H](CC(C)C)N(C)C(=O)[C@@H](C)NC(=O)[C@H](C)NC(=O)[C@H](CC(C)C)N(C)C(=O)[C@H](C(C)C)NC(=O)[C@H](CC(C)C)N(C)C(=O)[C@@H](C)N(C)C1=O [CRV431]
cell viability [1]: none of the CRV431 treatments affected cell viability
anti-viral activity (hepatitis C): shows anti-viral activity
cell viability [2]: none of the CRV431 treatments affected cell viability
gene expression of all markers ([3]; CRV431 applied at 5 μM, markers MCP-1, IL-6, TIMP1, αSMA, collagen 1α1): decreased
RNA levels of collagen1α1, αSMA, TIMP1, IL-6, and MCP-1 ([3]; qRT-PCR): reductions in RNA levels
mean daily secretion of all markers (MCP-1, IL-6, MMP-7, TIMP1, hyaluronic acid, collagen 1α1) [4]: decreased
gene expression of all markers (MCP-1, IL-6, TGFβ, TIMP1, collagen 1α1, αSMA) [5]: decreased
